In publication PMC10102062, “Effects of DPTQ, a novel positive allosteric modulator of the dopamine D1 receptor, on spontaneous eye blink rate and spatial working memory in the nonhuman primate” (Psychopharmacology, 2023):

How the values were obtained:
rhesus monkey = assay: Spatial delayed response working memory task; assay type: in vivo, rhesus and one stumptail macaque; conditions: for Delay-dependent errors: 0.1 mg/kg; for Delay-dependent errors at short delays: 1.0 mg/kg
Experimental: Sixteen rhesus and one stumptail macaque participated in the study (details provided below) that was performed at Yale University, New Haven CT, USA. Animals were used and cared for in full accordance with Yale University’s IACUC guidelines and polices in addition to all U.S. Federal policies and regulations. The monkeys were fed their normal diet each day, including appropriately nutritional biscuits and multiple fruits and vegetables for enrichment. Testing and any training occurred just before their main food course. This food consisted of biscuits, delivered each day, and all animals had full 24-h access to ad libitum water. Participation in cognitive testing was ensured by the enrichment of the environmental stimulation and the provision of the animals’ favorite food treats as rewards in the task, including yoghurt, raisins, almonds, grapes, fruit loops, and multiple other food items (Roberts et al [2010]).
The circuitry involved in this response is almost exclusively “dorsal stream” involving dorsolateral prefrontal cortex, particularly Area 46, and the lateral intraparietal sulcus (Goldman-Rakic [1996]). For a full description of the task used here, see Roberts et al. ([2010]). Animals were tested in a sound-attenuated room incorporating a testing chamber. In this task one of several well locations is baited with food in view of the animal and the wells are then covered with identical plaques. An opaque shutter is then lowered for one of 5 variable delays and then raised to allow the animal to make a response to one of the well locations to retrieve the food. Each delay length was repeated 4 times in a semirandom distribution across the 20 trials in each testing session. Each animal was stabilized prior to commencing any administration by gradually incrementing the number of wells (starting at just 2) and the lengths of the delay. The 5 variable delay lengths were set at 0, 1, 2, 3, and 4 s multiplied by a factor “N.” Thus, N was incremented by 1 up to a maximum of 10 until the subject performed at 80% or more across 3 consecutive test sessions whereupon the number of wells was incremented by 1. This process was repeated for each individual until they reached stable performance (65–75% ± ≤ 2.5% correct). This normalized level of performance allows for the sensitive detection of any impairment or improvement produced by experimental conditions. For baseline data for this study, we took 7 or more consecutive data points that had been collected in previous weeks which fell within the stable limits for the test. For the total group of 17 animals participating in this study, the median well number was 4 (range 2–7) and the median N value was 3 (range 1–7). Animals were typically tested 2 to 3 days a week.
DPTQ (free base, Eli Lilly & Co.) was prepared as described above for the spontaneous eye blink test. Animals (4 males and 6 females, mean age = 22.1 ± 1.7 years) were originally assigned to receive either vehicle or DPTQ 2.5 mg/kg IM in a semi-random design. One animal received vehicle but was not dosed with DPTQ. This same group of animals was later used in a repeated dosing study with DPTQ 2.5 mg/kg vs vehicle. After a protracted washout period of several months we tested the lower doses of 0.1 mg/kg and 1.0 mg/kg in ascending order. This group of 10 animals included 3 from the previous study (3 males, 7 females (including one aged stumptail macaque); average age = 22.6 ± 1.7 years). The youngest animal in this study was aged 17.3 years. None of the animals were naïve and had all been used in previous studies with other compounds. They were given an extensive washout of weeks or months prior to this study and were established to have normal baseline performance on the task. During the study, animals were washed out based on known PK properties (half-life) of this drug as well as the baseline performance of each individual animal. […]

[1] = design: method as in Hao et al. [2019]; conditions: after systemic dosing; ref Hao et al. [2019]; cited from earlier work
[2] = Brain penetration, unbound brain/plasma ratio and unbound ligand fraction; conditions: J. Cramer, unpublished data
[3] = Plasma ligand exposure after IM injection (LC/MS) and projected brain concentrations; assay type: in vivo, macaque monkeys
Experimental: Plasma samples were collected in EDTA tubes at 0, 0.25, 0.50, 1, 2, 4, 8, 12, and 24 h after a bolus IM injection and stored at − 70C until further analysis by LC/MS (for further details see Hao et al. [2019]). For the lower dose of 0.1 mg/kg, IM, plasma samples were collected from three of the animals participating in the spatial working memory task at Yale University, at approximately 1.5 h after dosing (~ 30 min after completion of behavioral test session). Animals were acclimated to sitting freely in a customized chair and having one leg held for hair trimming (if necessary), wiping with 70% alcohol, and saphenous venopuncture using a BD Vacutainer tube inside a safety holder. For the 5 mg/kg, IM dose, plasma samples were collected in a separate study in three male adult macaque monkeys at Eli Lilly and Company, Indianapolis, IN. The collection and storage of samples followed the procedure described above, and analysis of D1 ligand levels was carried out at Eli Lilly and Company, Indianapolis, IN, USA, using liquid chromatography and tandem mass spectrometry.

human D1 = tested on: human D1; design: method as in Hao et al. [2019]; conditions: stably transfected human D1 cloned cells; ref Hao et al. [2019]; read-out: EC50 for potentiation of the dopamine-induced increase in cAMP; cited from earlier work

Compound: C[C@H]1c2cccc(CC(C)(C)O)c2C[C@H](CO)N1C(=O)Cc1c(Cl)cccc1Cl [DPTQ]
- Working memory performance over 2 weeks (rhesus monkey; 0.1 mg/kg IM, n = 10, no diminution on day 3, p = 0.014): modest enhancement of working memory
- Delay-dependent errors (rhesus monkey; day 1, short (0, 1) N and long (3, 4) N delays): slight increase in errors
- Delay-dependent errors (rhesus monkey; day 5, particularly long delays): small but non-significant decrease in errors
- Working memory performance over 2 weeks (rhesus monkey; 1.0 mg/kg IM, n = 8, p = 0.006, strongest day 4 p < 0.0001): significant improvement in working memory
- Delay-dependent errors at short delays (rhesus monkey; day 1): no reduction in errors
- Delay-dependent errors at short delays (rhesus monkey; day 5): reduction
- Working memory performance day 3 (rhesus monkey; 2.5 mg/kg IM on days 1 and 5, n = 6): non-significant dip
- Working memory performance day 6 (rhesus monkey; 2.5 mg/kg IM on days 1 and 5, day after repeat dose): reduction in performance to baseline
- Working memory performance days 8-14 (rhesus monkey; 2.5 mg/kg IM on days 1 and 5, days 8, 12 p < 0.05, days 10, 14 p < 0.01): enhancement
- Working memory performance days 4 and 5 (rhesus monkey; 2.5 mg/kg IM on days 1 and 5, p < 0.01): rebound enhancement
- Working memory performance, acute effect (rhesus monkey; 2.5 mg/kg IM single dose, day 1, 1 h post injection, n = 9): No immediate acute effect
- Diminution of performance (rhesus monkey; 2.5 mg/kg IM single dose, day 2): 10%
- Mean performance score (rhesus monkey; 2.5 mg/kg IM single dose, day 3, p = 0.025 vs baseline, baseline 65–75% correct): 61.1
- Mean performance score (rhesus monkey; 2.5 mg/kg IM single dose, day 4, improvement days 4, 5, 6 p < 0.01): 84.3
- Working memory deficit on day 3 (rhesus monkey; 2.5 mg/kg day 1, vehicle day 5, n = 10, p = 0.278 vs baseline): small and did not achieve significance
- Working memory performance days 4-12 (rhesus monkey; 2.5 mg/kg day 1, vehicle day 5, days 4, 8 p < 0.001, day 5 p < 0.0001, days 10, 12 p < 0.05): enhancement
- Dose range over which procognitive effects were observed (rhesus monkey; 0.1 to 2.5 mg/kg IM): at least 25 fold
- Acute effect on spatial working memory (rhesus monkey; 1 h after injection, regardless of the dose administered): entirely null acute effect
- Score on day 3 at 0.1 and 1.0 mg/kg compared with 2.5 mg/kg (rhesus monkey; day 3, p < 0.01, p < 0.05 respectively): significantly higher score
- Score on day 4 at 2.5 mg/kg compared with 0.1 mg/kg (rhesus monkey; day 4): significantly greater
- Difference in scores attributable to dose (rhesus monkey; day 5, 0.1, 1.0, 2.5 mg/kg): No difference
- Brain penetration [1]: acceptable brain penetration
- Unbound brain vs unbound plasma concentration ratio [2]: about 0.3
- Unbound ligand fraction [2]: 0.068
- Estimated unbound ligand concentrations in the brain ([3]; 0.1 mg/kg IM, 1.5 h after dosing): 1 to 2 nM
- Projected unbound brain concentration as multiple of cAMP EC50 ([3]; 5 mg/kg IM, 2 h post dosing, hD1 and monkey D1 cAMP assay): eightfold down to onefold
- Plasma levels at 0.1 mg/kg IM relative to 5 mg/kg IM (times lower) ([3]; 0.1 vs 5 mg/kg IM): about 50 ×
- Plasma concentrations at late time points ([3]; after 12 or 24 h): negligible
- EC50 (human D1): 76 nM
